In US10729659B2, “Nanogel-mediated drug delivery” (The Cleveland Clinic Foundation, priority 2012, dated 2020):
Converted amounts (≈) assume the structure as drawn. Where two headings read alike, the source gives them in different places.

How the values were obtained:
[1] = system: MCF-7/Adr; experiment: Sequential/simultaneous treatment, cell viability by MTS assay; type: cell-based, human; conditions: for IC50: Homo sapiens, NCI/ADR-RES
Experimental: (§1) The efficacy of sequential treatment was tested in the following human breast cancer cell lines: MCF-7/Adr (drug resistant), MCF-7, MDAMB 231 and BT-459. Cells were seeded at 3000 cells per well/0.1 mL in 96-well plates (Microtest Becton Dickinson Labware, Franklin Lakes, N.J.). 24 h post seeding, cells were pretreated with DAC solution/nanogel for 24 h or 48 h and washed with 1×-DPBS. 0.1 mL of media containing dox solution or nanogel was added and incubated in CO2 incubator for 48 h. Cell viability was determined at the end of incubation period using a standard MTS assay (CellTiter 96 Aqueous, Promega, Madison, Wis.). To each well was added 20 μL of reagent, the plates were incubated for 2 h at 37° C. in cell culture incubator, and color intensity was measured at 490 nm using a micro plate reader (Bio-Tek Instrument, Winooski, Vt.). The effect of drug on cell proliferation was calculated as percentage growth of cells with respect to their respective controls. For simultaneous treatment DAC solution or nanogel, and dox solution or nanogel were added together to cells, and the above mentioned protocol was followed.
(§2) The interaction between DAC and dox was analyzed using the Calcusyn software program (Biosoft, Ferguson, Mo.) to determine whether the simultaneous/sequential treatment was additive or synergistic.
Data from cell viability assay (MTS) was expressed as the fraction of cells killed by individual drugs or by their combination in drug-treated compared with untreated cells. This program is based upon Chou-Talalay method. It calculates combination index (CI) of drugs. From the CI values, synergistic action of drugs can be analysed. The CI equal to 1, indicates the additive effect and CI<1 and CI>1, indicates synergistic and antagonistic activity respectively.

[2] = system: BT 459; experiment: Sequential treatment, cell viability by MTS assay; type: cell-based; conditions: Homo sapiens, dox alone, read-out: IC50 (Dox ng/mL)
Experimental: as §1, with “For simultaneous treatment DAC solution or nanogel, and dox solution or nanogel were added together to cells, and the above mentioned protocol was followed.” left out
as §2
Data from cell viability assay (MTS) was expressed as the fraction of cells killed by individual drugs or by their combination in drug-treated compared with untreated cells. […]

[3] = system: dox sensitive cell lines; experiment: Dox cell viability by MTS assay, sensitive cell lines; type: cell-based; conditions: Homo sapiens; range over sensitive cell lines
Experimental: Cells were seeded at 3000 cells per well/0.1 mL in 96-well plates (Microtest Becton Dickinson Labware, Franklin Lakes, N.J.). […] Cell viability was determined at the end of incubation period using a standard MTS assay (CellTiter 96 Aqueous, Promega, Madison, Wis.). To each well was added 20 μL of reagent, the plates were incubated for 2 h at 37° C. in cell culture incubator, and color intensity was measured at 490 nm using a micro plate reader (Bio-Tek Instrument, Winooski, Vt.). The effect of drug on cell proliferation was calculated as percentage growth of cells with respect to their respective controls. For simultaneous treatment DAC solution or nanogel, and dox solution or nanogel were added together to cells, and the above mentioned protocol was followed.

[4] = system: MCF-7 cells; experiment: Cell cycle analysis by flow cytometry; type: cell-based, human; conditions: DAC 50 ng/mL, dox 1 ng/mL, 48 h and 72 h, vs DAC alone or untreated
Experimental: (§3) Subconfluent cells were left untreated or treated with DAC (50 and 100 ng/mL) and dox (1 ng/mL) alone or in combination (sequential treatment) for 4-96 h. Cells were then trypsinized and then centrifuged at 1,300 rpm for 3 min at 4° C. Cell pellet was washed twice with ice cold 1X DPBS (pH 7.4) and resuspended in propidium iodide-(PI) solution (12.5 mg PI, 250 mg Sodium-Citrate and 250 μL Triton X-100 in 250 mL of water). Cells were then incubated in ice bucket, kept in cold room for 2 h, and DNA content was determined by flow cytometry using a FACScan flow cytometer (Becton Dickinson, San Jose, Calif.).

[5] = system: MCF-7/Adr cells; experiment: Cell cycle analysis by flow cytometry; type: cell-based, human; conditions: DAC 50 ng/mL, dox 1 ng/mL, 48 h and 72 h, vs DAC alone or untreated
Experimental: as §3

[6] = system: MCF-7/Adr cells; experiment: Cellular uptake of dox; type: cell-based, human; conditions: dox alone treated MCF-7/Adr cells
Experimental: Drug resistant breast cancer cells were seeded in 24 well plates (1.2×10^6 cells/well). Post 48 h seeding, cells were pre-treated with DAC (50 ng/mL; 24 h); and then incubated with fixed concentration of dox (1 μg/mL) for indicated time points. Post drug incubation cell lysates in RIPA buffer was collected and lyophilized. Dox was extracted from lyophilized cell lysates using methanol as the solvent and analyzed by HPLC.

[7] = rat model; cited from earlier work

COc1cccc2c1C(=O)c1c(O)c3c(c(O)c1C2=O)C[C@@](O)(C(=O)CO)C[C@@H]3O[C@H]1C[C@H](N)[C@H](O)[C@H](C)O1 [Dox, doxorubicin]
IC50 ([1]; dox alone, mean ± s.e.m., three experiments, read-out: IC50 (Dox ng/mL)): 7380 ng/mL
IC50 ([1]; pretreated with DAC 24 h, then dox 48 h, read-out: IC50 (Sequential - Deci + Dox ng/mL)): ≤ 1 ng/mL
IC50 (Dox ng/mL) ([1]; dox alone, mean ± s.e.m., three experiments): 7385.2 ± 698 ng/mL
IC50 [2]: 102 ± 4.7 ng/mL
IC50 [3]: 0.019 to 0.102 µg/mL (≈ 0.035 to 0.188 µM)
G2/M arrest [4]: no difference
G2/M arrest [5]: no difference
Incubation time after which drug concentration reached plateau [6]: 1 h

Nc1ncn([C@@H]2O[C@H](CO)[C@@H](O)[C@H]2O)c(=O)n1 [5-azacytidine]
Carcinogenicity [7]: carcinogenic
